Marks after values point to notes of the source that are not given here.

What all share (format): in vivo
For assay [1], the system named is mouse innate immune cells. As to the kind of experiment: CD40 and CD86 expression on mouse innate immune cells from spleen of NSG mice (flow cytometry). The conditions noted are these: 100 μg IP, 24 hours. As for the experimental part:
(§1) (San Jose, Calif.), eBiosciences (San Diego, Calif.) or BioLegend, (San Diego, Calif.). […] Single-cell suspensions of bone marrow (BM) and spleen were prepared from engrafted mice, and whole blood was collected in heparin. Single cell suspensions of 1×10^6 cells in 50 μL or 100 μL of whole blood were washed with FACS buffer (PBS supplemented with 2% fetal bovine serum, (HyClone, Logan, Utah) and 0.02% sodium azide (Sigma, St. Louis, Mo.)) and then pre-incubated with rat anti-mouse FcR11b (clone 2.4G2, BD Biosciences) to block Fc binding. Specific antibodies were then added to the samples and incubated for 30 min at 4° C. Stained samples were then washed and fixed with 2% paraformaldehyde for cell suspensions or treated with BD FACS lysing solution for whole blood. At least 50,000 events were acquired on LSRII or FACSCalibur instruments (BD Biosciences). Data analysis was performed with FlowJo (Tree Star, Inc., Ashland, Oreg.) software. Ultra Pure lipopolysaccharide (LPS, E. coli 0111:B4 strain), and polyinosinic-polycytidylic (poly(I:C), high molecular weight, HMW) were purchased from Invivogen (San Diego, Calif.). The indicated mice were injected intraperitoneally (IP) with 100 μg of either LPS or poly(I:C). To confirm that NSG-TLR4^null mice are unable to respond to TLR4 agonists, NSG and NSG-TLR4^null mice were treated with LPS and the ability of innate immune cells to increase expression of phenotypic markers (Table I) and produce cytokines (FIG. 2) was evaluated.

Assay [2] relates to mouse innate immune cells. Briefly: CD40 and CD86 expression on mouse innate immune cells from spleen of NSG-TLR4^null mice (flow cytometry). How it is done: as §1
Assay [3] deals with mouse innate immune cells. As to the kind of experiment: Mouse serum cytokines by cytometric bead array in NSG-TLR4^null mice (unmanipulated or HSC-engrafted). The conditions noted are these: in both NSG and NSG-TLR4^null mice, 100 μg IP, 24 hours.
The mark [4] stands for this setting: NSG-TLR4^null mice, 100 μg IP, 24 hours, spleen.

polyinosinic-polycytidylic [poly(IC)]: in assay [1], the “CD40 Expression, CD11b+ Macrophage” value came to 3909 ± 377; the “CD40 Expression, CD11c+/CD11b+ DC” value is 6860 ± 1276^b; the “CD40 Expression, CD11c+/CD11b− DC” value is reported as 19935 ± 1020^b; the “CD86 Expression, CD11b+ Macrophage” value was 68.27 ± 5.93. Moreover, in assay [1], the “CD86 Expression, CD11c+/CD11b+ DC” value is 540.3 ± 40^b and the “CD86 Expression, CD11c+/CD11b− DC” value was 1111 ± 141^c. Besides, in assay [2] (setting [4]), the “CD40 Expression, CD11b+ Macrophage” value worked out at 4168 ± 104; the “CD40 Expression, CD11c+/CD11b+ DC” value is 5035 ± 3278^b; the “CD40 Expression, CD11c+/CD11b− DC” value was 16160 ± 3782^b; the “CD86 Expression, CD11b+ Macrophage” value is 77.77 ± 15.96. In assay [2] (setting [4]), the “CD86 Expression, CD11c+/CD11b+ DC” value is reported as 635 ± 57.7^b and the “CD86 Expression, CD11c+/CD11b− DC” value is on record as 1315 ± 82^b. Further, the “induced increases in the expression of CD40 and CD86 on mouse innate immune cells” value in assay [2] (between NSG and NSG-TLR4^null mice) is given as “similar”. Moreover, the mouse cytokine response entry in assay [3] is reported as “similar”.
